# From patent US6436948B1, “Method for the treatment of psoriasis and genital warts” (priority 1995, dated 2002)
# Key:
# Assay type in all cases: cell-based
# 2.2.15 line = test: In vitro cytotoxicity, methylene blue assay / cell count: 2.2.15; conditions: three generations, mean ± standard deviation of five experiments, read-out: ID50 (the source's name)
# Description: Cells in logarithmic growth were plated at a density of 5000 cells/mL/well in 24-well plates. Drugs were added to the cells at different dosages and cultures were maintained for a period of three generations. At the end of this time, methylene blue assays were performed and/or cell numbers were directly counted. […] IC50 values were determined by interpolation of the plotted data. Each value shown is the mean± standard deviation of five experiments with each data point done in duplicate.
# HepG2 cells originate from hepatocellular carcinoma and the 2.2.15 line is derived from HepG2 cells which were transfected with a copy of the hepatitis B virus genome.
# tumor cell lines tested = test: In vitro cytotoxicity, statement on all tumor cell lines tested; conditions: all of the tumor cell lines tested
# [1] = test system: DU-145 prostate carcinoma line; test: In vitro cytotoxicity, methylene blue assay / cell count: DU-145; conditions: three generations, mean ± standard deviation of five experiments, read-out: ID50 (the source's name)
# HepG2 cells = test: In vitro cytotoxicity, methylene blue assay / cell count: HepG2; conditions: three generations, mean ± standard deviation of five experiments, read-out: ID50 (the source's name)
# [2] = test system: PC-3 prostate carcinoma line; test: In vitro cytotoxicity, methylene blue assay / cell count: PC-3; conditions: three generations, mean ± standard deviation of five experiments, read-out: ID50 (the source's name)
# [3] = test system: KB nasopharyngeal carcinoma cell line; test: In vitro cytotoxicity, methylene blue assay / cell count: KB; conditions: three generations, mean ± standard deviation of five experiments, read-out: ID50 (the source's name)
# CEM cells = test: In vitro cytotoxicity, methylene blue assay / cell count: CEM; conditions: three generations, mean ± standard deviation of five experiments, read-out: ID50 (the source's name)
structure (smiles),measurement,setting,value
"O=c1ccn(C2COC(CO)O2)c(=O)[nH]1 (single isomer, unassigned; (-)) [(−)-OddU]",IC50,2.2.15 line,> 30 µM
same,Cytotoxicity in words,tumor cell lines tested,not toxic
same,IC50,[1],> 30 µM
same,IC50,HepG2 cells,> 30 µM
same,IC50,[2],> 30 µM
same,IC50,[3],> 30 µM
same,IC50,CEM cells,> 30 µM
